The record followed here is paper PMC6270271, “Accidental Interaction between PDZ Domains and Diclofenac Revealed by NMR-Assisted Virtual Screening” (Molecules, 2013).

Experiment [1] deals with T1, RHPN2 (RHPN2_PDZ, PDZ7) (Homo sapiens, UniProt Q8IUC4).
T1 construct: PDZ domain, 99 residues
T1 sequence (Q8IUC4 515-593 limits assumed): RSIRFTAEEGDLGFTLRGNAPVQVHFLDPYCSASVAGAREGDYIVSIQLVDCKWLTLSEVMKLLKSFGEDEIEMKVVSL
Description: 1H-15N SOFAST-HMQC NMR titration. The class given is binding. An excerpt: 1H-15N SOFAST-HMQC NMR titration on RHPN2 (RHPN2_PDZ, PDZ7) | PDZ7|−|++|++|−|−|−|−|+|−|−

Experiment [2] addresses T2, Harmonin (Harmonin_PDZ2, PDZ8) (Homo sapiens, UniProt Q9Y6N9).
T2 construct: gene USH1C; PDZ2 domain, 100 residues
T2 sequence (Q9Y6N9 201-300 limits assumed): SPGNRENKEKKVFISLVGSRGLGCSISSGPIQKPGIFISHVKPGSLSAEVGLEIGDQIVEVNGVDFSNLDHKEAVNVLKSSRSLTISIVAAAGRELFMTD
Description: 1H-15N SOFAST-HMQC NMR titration. The class given is binding. An excerpt: 1H-15N SOFAST-HMQC NMR titration on Harmonin (Harmonin_PDZ2, PDZ8) | PDZ8|−|+|−|−|−|−|−|++|−|−

Experiment [3] addresses T3, InaDL (InaDL_PDZ6, PDZ13) (Homo sapiens, UniProt Q8NI35).
T3 construct: gene PATJ; PDZ6 domain, 113 residues
T3 sequence (Q8NI35 1058-1170 limits assumed): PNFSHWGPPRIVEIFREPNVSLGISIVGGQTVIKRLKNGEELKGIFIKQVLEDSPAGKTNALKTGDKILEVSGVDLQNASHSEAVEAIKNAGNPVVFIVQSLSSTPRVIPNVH
Description: 1H-15N SOFAST-HMQC NMR titration. The class given is binding.

Experiment [4] has as its target T4, mouse ZO-1 (mZO1-PDZ1) (Mus musculus, UniProt P39447).
T4 construct: gene Tjp1
T4 sequence (P39447 18-110): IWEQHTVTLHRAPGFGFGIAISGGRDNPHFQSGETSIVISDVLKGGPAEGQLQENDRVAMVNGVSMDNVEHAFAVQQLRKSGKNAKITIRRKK
Description: 1H-15N SOFAST-HMQC NMR titration; V92E-R96Q mutant abolishes binding.

The target in experiment [5] is T4, mouse ZO-1 (mZO1-PDZ1). Description: 1H-15N SOFAST-HMQC NMR titration. The class given is binding.

`CC(=O)O[C@H]1C[C@@]2(C)[C@@H](C[C@@H](O)[C@H]3[C@@]4(C)CC[C@@H](O)[C@@H](C)[C@@H]4CC[C@@]32C)/C1=C(\CCC=C(C)C)C(=O)O` [FUA, fusidic acid]: in experiment [1], the “1H-15N SOFAST-HMQC NMR titration” value is reported as “PDZ7|−|++|++|−|−|−|−|+|−|−”.
As usually defined, the Kd is the free concentration of one partner at which half of the binding sites on the other are occupied at equilibrium, for simple one-to-one binding. High values mean a looser complex, low ones a tighter complex. Take `O=C(O)Cc1ccccc1Nc1c(Cl)cccc1Cl` [DIF, 2-[(2,6-dichlorophenyl)amino] benzene-acetic acid]: the entries for the “1H-15N SOFAST-HMQC NMR titration” value in experiment [2], in experiment [3] and in experiment [1] were “PDZ8|−|+|−|−|−|−|−|++|−|−”, “PDZ13|n. e.|++|+|−|−|−|−|++|−|−” and “PDZ7|−|++|++|−|−|−|−|+|−|−”, respectively. The Kd in experiment [4] came out at 1400 µM.
As to `O=C(O)c1ccccc1Nc1cccc(C(F)(F)F)c1` [FLF, 2-[[3-(trifluoro-methyl)phenyl]amino] benzoic acid], the “1H-15N SOFAST-HMQC NMR titration” value in experiment [2] is “PDZ8|−|+|−|−|−|−|−|++|−|−”; in experiment [3], “PDZ13|n. e.|++|+|−|−|−|−|++|−|−”; in experiment [1], “PDZ7|−|++|++|−|−|−|−|+|−|−”. Besides, binding in experiment [5] was put at a Kd of 750 µM.
